PMC8850458, “The AUTOTAC chemical biology platform for targeted protein degradation via the autophagy-lysosome system” (Nature Communications, 2022)
Several values for one entry are separate records, joined by “and”; a condition that tells them apart may be missing. Equal entries are not always repeated.

What was measured:
p62 = molecular target: T1, p62 (Homo sapiens, UniProt Q13501); test: In vitro p62 oligomerization assay; type: biochemical; settings: HEK293T lysate
T1 construct: expressed in transfected cells; host or cells: HEK293T, transient; whole lysate used
Protocol: HEK293T cells were transiently transfected with a plasmid encoding p62-myc/his fusion proteins. Cells were resuspended in lysis buffer [50 mM HEPES (pH 7.4), 0.15 M KCl, 0.1% Nonidet P-40), 10% glycerol, containing a mixture of protease inhibitors and phosphatase inhibitor (Abcam)]. To lyse the cells, 10 cycles of freezing and thawing was done, followed by centrifugation at 13,000 × g for 20 min at 4 °C. Using a BCA assay, the protein concentration of the supernatant was measured. A total of 1 μg of protein was incubated with 1 mM of p62-ZZ ligands in the presence of 100 μM bestatin (Enzo) at room temperature for 2 h. After incubation, each sample was mixed with non-reducing 4X LDS sample buffer, heated at 95 °C for 10 min, and resolved using 4–20% gradient SDS-PAGE (Bio-Rad). To monitor the conversion of p62 monomers into oligomers or aggregates, IB assay was performed using anti-myc antibody.

tauP301L = tauP301L (Homo sapiens, UniProt P10636, P618L); test: WB degradation of tauP301L in SH-SY5Y-tauP301L cells; type: cell-based; settings: for Tau normalized to GAPDH and control, AVG %: average of N=3
Outline: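 Lysates in SDS/LDS or Laemmli sample buffer were separated by SDS-PAGE and blotted to PVDF. Target protein was detected with primary antibodies, HRP secondary and ECL on X-ray film, and degradation quantified by band densitometry.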

[1] = test system: tauP301L inclusion bodies; test: ICC of TauP301L-GFP autophagic targeting in HeLa cells; type: cell-based; settings: Fig. 5k, compound +HCQ; for TauP301L-GFP / LC3 colocalization, cells counted per 50 cells (individual replicates): count out of 50 cells
Protocol: Fig. 5 Selective degradation of pathological aggregation-prone tau species by aggregate-binding AUTOTAC. a–c WB in SH-SY5Y-tauP301L cells treated with PBA-1105, PBA, or YTK-1105 at the indicated concentrations. d Densitometry of (a, b, and c) (n = 3 biologically independent experiments). e–g Same as (a–c) but with Anle138b-F105, Anle138b, or YTK-105. (h) Densitometry of (e, f, and g) (n = 3 biologically independent experiments). i WB in SH-SY5Y-tauP301L cells treated with PBA-1105 (0.1 μM) at the indicated time points. j ICC of HeLa cells expressing recombinant TauP301L-GFP and treated with the indicated compounds (1 μM, 24 h) and HCQ (10 μM, 24 h). Scale bar, 10 μm. k Quantification of (j) (n = 3 biologically independent experiments each counting 50 cells). l In vivo oligomerization assay in SH-SY5Y-tauP301L cells treated with okadaic acid (15 nM, 24 h) and the indicated compounds (0.1 μM, 24 h). m Triton X-100-fractionation assay in SH-SY5Y-tauP301L cells treated with a combination of HCQ (10 μM, 24 h), okadaic acid (15 nM, 24 h) or PBA-1105 (0.1 μM, 24 h). Data are presented as mean values ± SD where relevant. P-values (from a two-sided unpaired t test): **P < 0.00821. Source data are provided with this paper.
Cells were cultured on coverslips coated with poly-L-lysine (Sigma) to observe cellular localization of proteins. Using 4% paraformaldehyde in PBS (pH 7.4), the cells were fixed for 15 min at room temperature and washed three times for 5 min with PBS. After fixing, the cells were permeabilized with 0.5% Triton X-100 in PBS solution for 15 min and washed three times with PBS for 5 min. The cells were blocked containing 2% BSA in PBS solution for 1 h at room temperature. Subsequently, the cells were incubated with primary antibody diluted in 2% BSA/PBS solution overnight at 4 °C, followed by washing the cells three times for 10 min with PBS and incubated with Alexa Fluor-conjugated secondary antibody diluted in 2% BSA/PBS for 30 min at room temperature. Using a DAPI-containing mounting medium (Vector Laboratories), the coverslips were mounted on glass slides. Confocal images were taken by laser scanning confocal microscope 510 Meta (Zeiss) and analyzed by Zeiss LSM Image Browser (ver. 4.2.0.121). […] Quantification results are shown as mean ± S.D. or S.E.M. of three independent experiments

[2] = densitometry, dosage degradation, SH-SY5Y-Tau-TiFC, 1 nM
[3] = densitometry, dosage degradation, SH-SY5Y-Tau-TiFC, 1 nM, read-out: (Tau normalized to GAPDH) normalized to control, percentage (individual replicates N=1, N=2, N=3)
[4] = densitometry, dosage degradation, SH-SY5Y-Tau-TiFC, 10 nM
[5] = densitometry, dosage degradation, SH-SY5Y-Tau-TiFC, 100 nM
[6] = densitometry, dosage degradation, SH-SY5Y-Tau-TiFC, 1 uM
[7] = densitometry, dosage degradation, SH-SY5Y-Tau-TiFC, 10uM

tauP301L, sequence (P10636 1-441 isoform P10636-8 P301L): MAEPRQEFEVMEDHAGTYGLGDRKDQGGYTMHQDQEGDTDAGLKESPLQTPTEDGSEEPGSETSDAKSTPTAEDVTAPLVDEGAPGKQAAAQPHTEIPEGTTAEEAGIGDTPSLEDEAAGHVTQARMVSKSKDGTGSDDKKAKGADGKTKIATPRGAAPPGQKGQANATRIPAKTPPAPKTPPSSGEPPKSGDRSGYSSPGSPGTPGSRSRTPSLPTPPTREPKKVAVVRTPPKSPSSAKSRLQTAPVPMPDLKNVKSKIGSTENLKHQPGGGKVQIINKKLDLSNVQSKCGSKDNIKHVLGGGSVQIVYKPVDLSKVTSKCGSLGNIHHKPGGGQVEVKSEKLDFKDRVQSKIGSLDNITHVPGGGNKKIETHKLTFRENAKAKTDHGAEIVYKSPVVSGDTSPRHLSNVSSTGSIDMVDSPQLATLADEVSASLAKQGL
T1 sequence (Q13501 whole entry): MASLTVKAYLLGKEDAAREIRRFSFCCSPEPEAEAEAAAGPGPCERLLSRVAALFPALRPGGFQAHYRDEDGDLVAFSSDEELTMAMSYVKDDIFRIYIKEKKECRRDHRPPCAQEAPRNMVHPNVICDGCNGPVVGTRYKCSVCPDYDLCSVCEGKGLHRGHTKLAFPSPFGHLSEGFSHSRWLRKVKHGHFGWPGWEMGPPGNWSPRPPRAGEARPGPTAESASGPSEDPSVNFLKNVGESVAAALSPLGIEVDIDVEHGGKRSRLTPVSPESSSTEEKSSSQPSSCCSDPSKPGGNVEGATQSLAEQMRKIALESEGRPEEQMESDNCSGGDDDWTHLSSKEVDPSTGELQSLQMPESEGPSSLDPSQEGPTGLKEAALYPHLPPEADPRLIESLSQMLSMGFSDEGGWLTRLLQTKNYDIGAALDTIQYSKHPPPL

SMILES	p62 self-oligomerization (p62)	DC50 (tauP301L; SH-SY5Y-tauP301L cells)	Dmax,24 hr of tauP301L degradation (tauP301L; SH-SY5Y-tauP301L cells)	Tau normalized to GAPDH and control, AVG % (tauP301L; [2])	remaining activity at 0.001 µM (tauP301L; [3])	Tau normalized to GAPDH and control, AVG % (tauP301L; [4])	Tau normalized to GAPDH and control, AVG % (tauP301L; [5])	Tau normalized to GAPDH and control, AVG % (tauP301L; [6])	Tau normalized to GAPDH and control, AVG % (tauP301L; densitometry, dosage degradation, SH-SY5Y-Tau-TiFC, 2.5uM)	remaining activity at 2.5 µM (tauP301L; densitometry, dosage degradation, SH-SY5Y-Tau-TiFC, 2.5uM, read-out: (Tau normalized to GAPDH) normalized to control, percentage (individual replicates N=1, N=2, N=3))	Tau normalized to GAPDH and control, AVG % (tauP301L; densitometry, dosage degradation, SH-SY5Y-Tau-TiFC, 5uM)	Tau normalized to GAPDH and control, AVG % (tauP301L; [7])	TauP301L-GFP / LC3 colocalization, AVG of cells per 50 cells [1]	TauP301L-GFP / LC3 colocalization, percentage AVG [1]	TauP301L-GFP / LC3 colocalization, cells counted per 50 cells (individual replicates) [1]	remaining activity at 10 µM (tauP301L; densitometry, dosage degradation, SH-SY5Y-Tau-TiFC, 10uM, read-out: (Tau normalized to GAPDH) normalized to control, percentage (individual replicates N=1, N=2, N=3))	TauP301L-GFP / LC3 colocalization, cells counted per 50 cells (individual replicates) ([1]; listed as PBA)
O=C(CCCc1ccccc1)NCCOCCOCCOCCNCc1ccc(OCc2ccccc2)c(OCc2ccccc2)c1 [PBA-1105]	triggered its self-oligomerization	1 to 10 nM	100 nM	46.0558%	45%	19.6838%	23.7212%	30.8722%	20.4143%	19.2%	12.549%	73.3109%	33	66 percentage	33 and 41 and 25	–	–
O=C(O)CCCc1ccccc1 [4-PBA, 4-phenylbutyric acid]	–	–	–	80.1686%	76.8%	93.9777%	90.7287%	84.0643%	–	–	–	93.7866%	13.6667	27.3333 percentage	–	87%	12 and 22 and 7
O[C@H](CNCCOCCOCCOc1ccc(-c2c(-c3ccccc3)nn3c(C(F)(F)F)cc(C(F)(F)F)nc23)cc1)COc1ccc(OCc2ccccc2)c(OCCCc2ccccc2)c1 [PHTPP-1304]	induced self-oligomerization of p62	–	–	–	–	–	–	–	–	–	–	–	–	–	–	–	–
